Data reported in ChEMBL document CHEMBL3885861, “Open TG-GATES”.

Species on record: Rattus norvegicus
Test: Open TG-GATES - Regimen: Daily Repeat
Assay type: toxicity, organism-based, Sprague-Dawley
Set-up: regimen Daily Repeat, gender Male, age 6 weeks
Settings: in vivo, po, 1000 mg/kg, route gavage, dose level High; for Bas / Eos / Fbg / Hb / Ht / Lym / MCHC / MCV / Mono / Plat / RBC / Ret / WBC / Neu / PT: tissue Blood; for ALP / ALT / AST / BUN / CRE / Ca / Cl / DBIL / GLC / IP / K / LDH / Na / PL / RALB / TBIL / TC / TG / TP / gamma-GTP: tissue Plasma

O=C(O)c1cccnc1 [NIACIN]
Bas (72 h, time 3 day): 0% | Eos (72 h, time 3 day): 0.8% | Fbg (72 h, time 3 day): 319.4 mg/dL | Hb (72 h, time 3 day): 13.5 g/dL | Ht (72 h, time 3 day): 40.1% | Lym (72 h, time 3 day): 73.6% | MCHC (72 h, time 3 day): 33.5% | MCV (72 h, time 3 day): 62.3 fL | Mono (72 h, time 3 day): 3.8% | Plat (72 h, time 3 day): 119.3 x10_4/uL | RBC (72 h, time 3 day): 645 x10_4/ul | Ret (72 h, time 3 day): 5.7% | WBC (72 h, time 3 day): 116 x10_2/uL | ALP (72 h, time 3 day): 1534.6 IU/L | ALT (72 h, time 3 day): 48.8 IU/L | AST (72 h, time 3 day): 77.8 IU/L | BUN (72 h, time 3 day): 17.2 mg/dL | CRE (72 h, time 3 day): 0.2 mg/dL | Ca (72 h, time 3 day): 10.9 mg/dL | Cl (72 h, time 3 day): 104.2 meq/L | DBIL (72 h, time 3 day): 0 mg/dL | GLC (72 h, time 3 day): 187.6 mg/dL | IP (72 h, time 3 day): 8.5 mg/dL | K (72 h, time 3 day): 4.1 meq/L | LDH (72 h, time 3 day): 176.6 IU/L | Na (72 h, time 3 day): 139.4 meq/L | PL (72 h, time 3 day): 148.8 mg/dL | RALB (72 h, time 3 day): 3.1 g/dL | TBIL (72 h, time 3 day): 0 mg/dL | TC (72 h, time 3 day): 73.4 mg/dL | TG (72 h, time 3 day): 97.6 mg/dL | TP (72 h, time 3 day): 5.6 g/dL | gamma-GTP (72 h, time 3 day): 1.2 IU/L | TERMINAL_BW ([…], time 7 day): 270 g | TERMINAL_BW ([…], time 14 day): 315.4 g | TERMINAL_BW ([…], time 28 day): 425.7 g | Bas ([…], time 7 day): 0% | Eos ([…], time 7 day): 0.8% | Fbg ([…], time 7 day): 325.4 mg/dL | Hb ([…], time 7 day): 13.6 g/dL | Ht ([…], time 7 day): 40.6% | Lym ([…], time 7 day): 77.2% | MCHC ([…], time 7 day): 33.5% | MCV ([…], time 7 day): 61.6 fL | Mono ([…], time 7 day): 3.4% | Neu ([…], time 7 day): 16.8% | PT ([…], time 7 day): 16 s | Plat ([…], time 7 day): 107.2 x10_4/uL | RBC ([…], time 7 day): 659.8 x10_4/ul | Ret ([…], time 7 day): 6.7% | WBC ([…], time 7 day): 127.7 x10_2/uL | Bas ([…], time 14 day): 0% | Eos ([…], time 14 day): 0.6% | Fbg ([…], time 14 day): 295.4 mg/dL | Hb ([…], time 14 day): 13.9 g/dL | Ht ([…], time 14 day): 41.5% | Lym ([…], time 14 day): 75.2% | MCHC ([…], time 14 day): 33.6% | Mono ([…], time 14 day): 2.4% | Neu ([…], time 14 day): 19.8% | PT ([…], time 14 day): 15.2 s | Plat ([…], time 14 day): 114.8 x10_4/uL | RBC ([…], time 14 day): 684.2 x10_4/ul | Ret ([…], time 14 day): 4.6% | WBC ([…], time 14 day): 131.3 x10_2/uL | Bas ([…], time 28 day): 0% | Eos ([…], time 28 day): 1% | Fbg ([…], time 28 day): 310.8 mg/dL | Hb ([…], time 28 day): 14.8 g/dL | Ht ([…], time 28 day): 42.1% | Lym ([…], time 28 day): 75.6% | MCHC ([…], time 28 day): 35.2% | MCV ([…], time 28 day): 56.4 fL | Mono ([…], time 28 day): 3.6% | Neu ([…], time 28 day): 18.2% | PT ([…], time 28 day): 15.8 s | Plat ([…], time 28 day): 88.1 x10_4/uL | RBC ([…], time 28 day): 747.2 x10_4/ul | Ret ([…], time 28 day): 2.7% | WBC ([…], time 28 day): 127.6 x10_2/uL | ALP ([…], time 7 day): 1693.6 IU/L | ALT ([…], time 7 day): 45.6 IU/L | AST ([…], time 7 day): 77.6 IU/L | BUN ([…], time 7 day): 15.8 mg/dL | CRE ([…], time 7 day): 0.2 mg/dL | Ca ([…], time 7 day): 10.6 mg/dL | Cl ([…], time 7 day): 104.8 meq/L | DBIL ([…], time 7 day): 0 mg/dL | GLC ([…], time 7 day): 196.6 mg/dL | IP ([…], time 7 day): 7.5 mg/dL | K ([…], time 7 day): 4.5 meq/L | LDH ([…], time 7 day): 137.2 IU/L | Na ([…], time 7 day): 139 meq/L | PL ([…], time 7 day): 142.4 mg/dL | RALB ([…], time 7 day): 3 g/dL | TBIL ([…], time 7 day): 0.004 mg/dL | TC ([…], time 7 day): 69.2 mg/dL | TG ([…], time 7 day): 107 mg/dL | TP ([…], time 7 day): 5.6 g/dL | gamma-GTP ([…], time 7 day): 1.8 IU/L | ALP ([…], time 14 day): 1458 IU/L | ALT ([…], time 14 day): 44.8 IU/L | AST ([…], time 14 day): 86.8 IU/L | BUN ([…], time 14 day): 17.2 mg/dL | CRE ([…], time 14 day): 0.2 mg/dL | Ca ([…], time 14 day): 10.5 mg/dL | Cl ([…], time 14 day): 105.2 meq/L | DBIL ([…], time 14 day): 0 mg/dL | GLC ([…], time 14 day): 195.6 mg/dL | IP ([…], time 14 day): 7 mg/dL | K ([…], time 14 day): 4.1 meq/L | LDH ([…], time 14 day): 140.8 IU/L | Na ([…], time 14 day): 138.8 meq/L | PL ([…], time 14 day): 150.8 mg/dL | RALB ([…], time 14 day): 3.1 g/dL | TBIL ([…], time 14 day): 0.012 mg/dL | TC ([…], time 14 day): 67.2 mg/dL | TG ([…], time 14 day): 163.6 mg/dL | TP ([…], time 14 day): 5.7 g/dL | gamma-GTP ([…], time 14 day): 1.8 IU/L | ALP ([…], time 28 day): 1046.8 IU/L | ALT ([…], time 28 day): 47 IU/L | AST ([…], time 28 day): 80.8 IU/L | BUN ([…], time 28 day): 17.8 mg/dL | CRE ([…], time 28 day): 0.2 mg/dL | Ca ([…], time 28 day): 10.5 mg/dL | Cl ([…], time 28 day): 104 meq/L | DBIL ([…], time 28 day): 0 mg/dL | GLC ([…], time 28 day): 196.6 mg/dL | IP ([…], time 28 day): 7.1 mg/dL | K ([…], time 28 day): 4.2 meq/L | LDH ([…], time 28 day): 157.4 IU/L | Na ([…], time 28 day): 143.4 meq/L | PL ([…], time 28 day): 152 mg/dL | RALB ([…], time 28 day): 3 g/dL | TBIL ([…], time 28 day): 0.01 mg/dL | TC ([…], time 28 day): 68.4 mg/dL | TG ([…], time 28 day): 184 mg/dL | TP ([…], time 28 day): 5.8 g/dL | gamma-GTP ([…], time 28 day): 2.4 IU/L
